Where two headings read alike, the source gives them in different places.
Columns and labels:
human 5-HT1A receptor [1] = biological target: T1, human 5-HT1A receptor (Homo sapiens, UniProt P08908); test: 5-HT1A receptor binding, [3H]8-OH-DPAT displacement in membranes of CHO cells expressing the human receptor; details: 5-HT1A.CHO membranes; for Ki: [3H]8-OH-DPAT 1.5 nM, 30 min, room temperature; for inhibition at 0.1 µM: at .1 μM, [3H]8-OH-DPAT, read-out: 5-HT1A (% Inh. @ .1 μM)
T1 construct: expressed in transfected cells
T1 sequence (P08908 1-422): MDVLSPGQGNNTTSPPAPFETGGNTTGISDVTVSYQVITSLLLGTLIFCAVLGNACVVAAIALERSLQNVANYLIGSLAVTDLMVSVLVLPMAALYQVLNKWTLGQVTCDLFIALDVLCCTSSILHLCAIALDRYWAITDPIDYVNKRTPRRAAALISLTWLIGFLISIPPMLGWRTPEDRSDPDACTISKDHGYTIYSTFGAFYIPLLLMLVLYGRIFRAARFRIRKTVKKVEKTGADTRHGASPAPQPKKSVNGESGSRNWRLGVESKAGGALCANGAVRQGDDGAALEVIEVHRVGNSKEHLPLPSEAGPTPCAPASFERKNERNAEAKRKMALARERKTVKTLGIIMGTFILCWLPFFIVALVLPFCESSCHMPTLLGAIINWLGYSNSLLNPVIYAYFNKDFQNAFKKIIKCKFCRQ
Procedure: (§1) The PCR cloning of the human ^5 -HT1A receptor subtype from a human genomic library has been described previously by Chanda et al., Mol. Pharmacol., 43:516 (1993). A stable Chinese hamster ovary cell line expressing the human S-HT1A receptor subtype (5-HT1A.CHO cells) was employed throughout this study. Cells were maintained in DMEM supplemented with 10% fetal calf serum, non-essential amino acids and penicillin/ streptomycin.
Cells were grown to 95-100% confluency as a monolayer before membranes were harvested for binding studies. Cells were gently scraped from the culture plates, transferred to centrifuge tubes, and washed twice by centrifugation (2000 rpm for 10 min., 4° C.) in buffer (50 mM Tris; pH 7.5). The resulting pellets were aliquoted and placed at -80.C. On the day of assay, the cells were thawed on ice, and resuspended in buffer. Studies were conducted using [^3 H]8-OH-DPAT as the radioligand. The binding assay was performed in 96 well mnicrotiter plates in a final total volume of 250 μL of buffer. Comparison experiments were performed by using 7 concentrations of unlabelled drug and a final ligand concentration of 1.5 nM . Non-specific binding was determined in the presence of 10 μM 5HT. Saturation analysis was conducted by using [^3 H]8-OH-DPAT at concentrations ranging from 0.3-30 nM. Following a 30 minute incubation at room temperature, the reaction was terminated by the addition of ice cold buffer and rapid filtration using a M-96 Brandel Cell Harvester Gaithersburg, Md.) through a GF/B filter presoaked for 30 minutes in 0.5% polyethyleneimine.

serotonin transporter = biological target: T2, serotonin transporter (Rattus norvegicus, UniProt P31652); test: serotonin transporter (ST) binding, 3H-paroxetine displacement in rat frontal cortical membranes; parameters: species or system rat (male Sprague-Dawley)
T2 construct: frontal cortical membranes prepared from male Sprague-Dawley rats; from tissue; host or cells: frontal cortical membranes of male Sprague-Dawley rats
Procedure: A protocol similar to that used by Cheetham et al., Neuropharmacol. , 32:737 (1993) was used to determine the affinity of compounds for the serotonin transporter. Briefly, frontal cortical membranes prepared from male Sprague-Dawley rats were incubated with ^3 H-paroxetine (0.1 nM) for 60 min at 25° C. All tubes also contained either vehicle, test compound (one to eight concentrations), or a saturating concentration of fluoxetine (10 μM) to define […]. All reactions were terminated by the addition of ice cold Tris buffer followed by rapid filtration using a Tom Tech filtration device to separate bound from free ^3 H-paroxetine. Bound radioactivity was quantitated using a Wallac 1205 Beta Plate® counter. Nonlinear regression analysis was used to determine IC50 values which were converted to Ki values using the method of Cheng and Prusoff, Biochem. Pharmacol., 22:3099 (1973); Ki=IC50/((Radioligand conc.)/(1+KD)).

human 5-HT1A receptor [2] = biological target: T1, human 5-HT1A receptor; test: [35S]-GTPγS binding in 5-HT1A cloned receptor membrane fragments; type: biochemical; details: [35S]GTPγS 1 nM, 30 min, 30° C.; excess 8-OH-DPAT defines maximum agonist response
From the text: as §1
The [^35 S]-GTPγS binding assay was similar to that used by Lazareno and Birdsall, Br. J. Pharmacol. 109:1120 (1993). Briefly, 5-HT1A cloned receptor membrane fragments (as used for 5-H1A receptor binding assays) were stored at -70° C. until needed. When needed, membranes were rapidly thawed, centrifuged at 40,000×g for 10 minutes and resuspended at 4° C. for 10 minutes in assay buffer (25 mM HEPES, 3 mM MgCl2, 100 mnM NaCl, 1 mM EDTA, 10 uM GDP, […] DTT, pH 8.0). These membranes were then incubated for 30 min at 30° C. with [^35 S]GTPgS (1 nM) in the presence of vehicle, test compound (one to eight concentrations), or excess 8-OH-DPAT to define maximum agonist response. All reactions are terminated by the addition of ice cold Tris buffer followed by rapid filtration using a Tom Tech® filtration device to separate bound from free [^35 S]GTPgS. Agonists produce an increase in the amount of [^35 S]GTPgS bound whereas antagonists produce no increase in binding. Bound radioactivity was counted and analyzed as above.

[3] = 3H-paroxetine 0.1 nM, 60 min, 25° C., rat frontal cortical membranes, IC50 converted to Ki (Cheng-Prusoff), read-out: ST (Ki)

T2 sequence (P31652 whole entry): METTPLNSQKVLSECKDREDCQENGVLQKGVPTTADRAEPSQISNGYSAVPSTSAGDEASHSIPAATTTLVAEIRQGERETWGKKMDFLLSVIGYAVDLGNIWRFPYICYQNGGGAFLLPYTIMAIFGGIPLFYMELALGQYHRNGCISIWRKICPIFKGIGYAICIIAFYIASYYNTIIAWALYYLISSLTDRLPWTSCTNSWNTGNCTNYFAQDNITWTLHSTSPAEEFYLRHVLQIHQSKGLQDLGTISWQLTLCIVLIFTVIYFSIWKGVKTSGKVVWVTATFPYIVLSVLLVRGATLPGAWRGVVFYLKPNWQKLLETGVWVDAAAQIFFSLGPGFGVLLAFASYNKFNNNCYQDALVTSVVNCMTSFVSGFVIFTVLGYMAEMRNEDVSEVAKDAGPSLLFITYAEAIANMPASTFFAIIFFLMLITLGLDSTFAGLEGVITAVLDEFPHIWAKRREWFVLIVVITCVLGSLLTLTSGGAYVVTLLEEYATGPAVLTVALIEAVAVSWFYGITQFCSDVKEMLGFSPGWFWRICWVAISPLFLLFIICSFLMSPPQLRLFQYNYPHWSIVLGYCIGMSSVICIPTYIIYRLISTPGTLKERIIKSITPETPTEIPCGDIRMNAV

Structure (SMILES) | Ki (human 5-HT1A receptor [1]) | Ki (serotonin transporter) | Emax (human 5-HT1A receptor [2]) | Ki (serotonin transporter; [3]) | inhibition at 0.1 µM (human 5-HT1A receptor [1])
COc1cccc2c1OC(CN1CC=C(c3c[nH]c4ccc(F)cc34)CC1)CN2 (centres unmarked) [Example 1, 2-[4-(5-Fluoro-1H-indol-3-yl)-3,6-dihydro-2H-pyridin-1-ylmethyl]-8-methoxy-3,4-dihydro-2H-benzo[1,4]oxazine] | 155 nM | 3.7 nM | 10% | – | –
COc1cccc2c1OC(CN1CC=C(c3c[nH]c4ccc(F)cc34)CC1)CN2C (centres unmarked) [Example 2, 2-[4-(5-Fluoro-1H-indol-3-yl)-3,6-dihydro-2H-pyridin-1-ylmethyl]-8-methoxy-4-methyl-3,4-dihydro-2H-benzo[1,4]oxazine] | 140 nM | 8.5 nM | 97% | – | –
CCN1CC(CN2CC=C(c3c[nH]c4ccc(F)cc34)CC2)Oc2c(OC)cccc21 (centres unmarked) [Example 3, 2-[4-(5-Fluoro-1H-indol-3-yl)-3,6-dibydro-2H-pyridin-1-ylmetbyl]-8-methoxy-4-ethyl-3,4-dihydro-2H-benzo[1,4]oxazine] | 137 nM | 12 nM | 62% | – | –
CCCN1CC(CN2CC=C(c3c[nH]c4ccc(F)cc34)CC2)Oc2c(OC)cccc21 (centres unmarked) [Example 4, 2-[4-(5-Fluoro-1H-indol-3-yl)-3,6-dihydro-2H-pyridin-1-ylmethyl]-8-methoxy-4-propyl-3,4-dihydro-2H-benzo[1,4]oxazine] | 363 nM | 20 nM | 100% | – | –
C1=C(c2c[nH]c3ccccc23)CCN(CC2CNc3ccccc3O2)C1 (centres unmarked) [Example 5, 2-[4-(1H-Indol-3-yl)-3,6-dihydro-2H-pyridin-1-ylmethyl]-3,4-dihydro-2H-benzo[1,4]oxazine] | 805 nM | – | 57% | 0.74 nM | –
C1=C(c2c[nH]c3ncccc23)CCN(CC2CN(c3ccccc3)c3ccccc3O2)C1 (centres unmarked) [Example 6, 4-Phenyl-2-[4-(1H-pyrrolo[2,3,b]pyridin-3yl)-3,6-dihydro-2H-pyridin-1-ylmethyl]-3,4-dihydro-2H-benzo[1,4]oxazine] | – | 106 nM | 0% | – | 20%
COc1cccc2c1OC(CN1CC=C(c3c[nH]c4ccc(F)cc34)CC1)CN2c1ccc(C(F)(F)F)cc1 (centres unmarked) [Example 7, 2-[4-(5-Fluoro-1H-Indol-3-yl)-3,6-dihydro-2H-pyridin-1-ylmethyl]-8-methoxy-4-(4-trifluoromethyl-phenyl)-3,4-dihydro-2H-benzo[1,4]oxazine] | – | – | – | 505 nM | 0%

From patent US6221863A, “3,4-dihydro-2H-benzo[1,4]oxazine derivatives” (American Home Products Corp., priority 1999, dated 2001)
